How the values were obtained:
Assay in all cases: Synergistic antimicrobial activity as MIC, 96-well microplate, optical density at 620 nm
Type in all cases: cell-based
[1] = system: Staphylococcus aureus ATCC 6538; conditions: for % MIC of A alone: Staphylococcus aureus, growth <= 25%
Source text: (§1) FIC Index=(MIC of A with B/MIC of A)+(MIC of B with A/MIC of B [Math. 1]
(§2) with: • MIC of A with B: minimum concentration of product A in the combination A+B which makes it possible to obtain an inhibitory effect; • MIC of B with A: minimum concentration of product B in the combination A+B which makes it possible to obtain an inhibitory effect; • MIC of A: minimum inhibitory concentration of product A alone; • MIC of B: minimum inhibitory concentration of product B alone. This formula was described for the first time in the article by F. C. Kull, P. C. Eisman, H. D. Sylwestrowka, and R. L. Mayer, Applied Microbiology 9:538-541, 1961.
The microbial strain Staphylococcus aureus ATCC 6538 and a double-concentration nutrient broth liquid culture medium were used.
(§3) A 96-well microplate at an incubation temperature of 32.5° C. is used.
(§4) The incubation time of the microplate is: • from 24 to 30 h under aerobic conditions for microbial Aspergillus niger ATCC 6275; • from 18 to 24 h under aerobic conditions for Candida albicans ATCC 10231, Pseudomonas aeruginosa ATCC 9027 and Staphylococcus aureus ATCC 6538; • from 24 to 48 h under aerobic conditions for Enterococcus faecalis ATCC 33186.
(§5) For each compound: A=4-(3-ethoxy-4-hydroxyphenyl) butan-2-one compound B=alcohol compound A 10% (weight/volume) stock solution was prepared by mixing 1 g of compound in 9 ml of aqueous 1% agar solution. Successive dilutions were made with the 1% agar solution.
(§6) 50 μl of each of the daughter solutions obtained containing compound A or B are added to the microplate wells. 100 μl of Sabouraud liquid nutrient broth inoculated at double concentration with the Aspergillus niger strain and 50 μl of aqueous 1% agar solution are also added thereto.
(§7) 50 μl of each of the daughter solutions obtained containing compound A and 50 μl of each of the daughter solutions obtained containing compound B are added to the microplate wells. 100 μl of Sabouraud liquid nutrient broth inoculated at double concentration with the strain Aspergillus niger are also added thereto.
(§8) A positive microbial growth control was also prepared. The positive microbial growth control corresponds to a mixture of 100 μl of aqueous 1% agar solution with 100 μl of Sabouraud liquid nutrient broth inoculated at double concentration with the strain Aspergillus niger in the absence of compounds A and B.
(§9) An absorbance control was performed in parallel on compounds A and B alone. This control corresponds to 100 μl of double concentration sterile Sabouraud liquid nutrient broth+100 μl of double concentration compound A or B.
(§10) In the three cases (absorbance control, growth control and test), the final volume present in each of the microplate wells is 200 μl.
(§11) The test as described above (tests, absorbance control and growth control) was performed again to test the combination A+B on the following strains Enterococcus faecalis, Staphylococcus aureus, Pseudomonas aeruginosa, Candida albicans, where appropriate.

[2] = system: Candida albicans ATCC 10231; conditions: for microbial growth percentage: 0 B5 weight %
Source text: with: • MIC of A with B: minimum concentration of product A in the combination A+B which makes it possible to obtain an inhibitory effect; • MIC of B with A: minimum concentration of product B in the combination A+B which makes it possible to obtain an inhibitory effect; • MIC of A: minimum inhibitory concentration of product A alone; • MIC of B: minimum inhibitory concentration of product B alone. This formula was described for the first time in the article by F. C. Kull, […], and R. L. Mayer, Applied Microbiology 9:538-541, 1961. […] When the FIC index value is less than or equal to 1, it is considered that the combination of test compounds has a synergistic effect. […] A 96-well microplate at an incubation temperature of 32.5° C. is used. […] For each compound: […] 50 μl of each of the daughter solutions obtained containing compound A and 50 μl of each of the daughter solutions obtained containing compound B are added to the microplate wells. 100 μl of Sabouraud liquid nutrient broth inoculated at double concentration with the strain Aspergillus niger are also added thereto. A positive microbial growth control was also prepared. […] An absorbance control was performed in parallel on compounds A and B alone. This control corresponds to 100 μl of double concentration sterile Sabouraud liquid nutrient broth+100 μl of double concentration compound A or B. […] The test as described above (tests, absorbance control and growth control) was performed again to test the combination A+B on the following strains Enterococcus faecalis, Staphylococcus aureus, Pseudomonas aeruginosa, Candida albicans, where appropriate.

[3] = system: Enterococcus faecalis ATCC 33186; conditions: for % MIC of A alone: Enterococcus faecalis, growth <= 25%
Source text: as §1, §2
The microbial strain Enterococcus faecalis ATCC 33186 and a double-concentration BHI (Brain Heart Infusion) broth liquid culture medium were used.
as §3, §4, §5, §6, §7, §8, §9, §10, §11

Question: What does the source list for `CCOc1cc(CCC(C)=O)ccc1O` [A, 4-(3-ethoxy-4-hydroxyphenyl)butan-2-one]?
Answer: microbial growth percentage ([1]; 0.0625 A, 0 B2 weight %): 52%; microbial growth percentage ([1]; 0.0625 A, 0 B6 weight %): 65%; microbial growth percentage ([1]; 0.125 A, 0 B2 weight %): 49%; microbial growth percentage ([1]; 0.125 A, 0 B6 weight %): 75%; microbial growth percentage ([1]; 0.25 A, 0 B2 weight %): 52%; microbial growth percentage ([1]; 0.25 A, 0 B6 weight %): 79%; microbial growth percentage ([1]; 0.5 A, 0 B2 weight %): 75%; microbial growth percentage ([1]; 0.5 A, 0 B6 weight %): 24%; microbial growth percentage ([1]; 1 A, 0 B2 weight %): 2%; microbial growth percentage ([1]; 1 A, 0 B6 weight %): 5%; % MIC of A alone ([1]; Example 2): 1%; % MIC of A alone ([1]; Example 6): 1%; microbial growth percentage ([2]; 0.025 A): 69%; microbial growth percentage ([2]; 0.05 A): 54%; microbial growth percentage ([2]; 0.1 A): 27%; microbial growth percentage ([2]; 0.2 A): 4%; % MIC of A alone ([2]; Candida albicans, Example 5, growth <= 25%): 0.2%; microbial growth percentage ([3]; 0.0625 A, 0 B3 weight %): 70%; microbial growth percentage ([3]; 0.0625 A, 0 B4 weight %): 44%; microbial growth percentage ([3]; 0.0625 A, 0 B6 weight %): 35%; microbial growth percentage ([3]; 0.125 A, 0 B3 weight %): 31%; microbial growth percentage ([3]; 0.125 A, 0 B4 weight %): 39%; microbial growth percentage ([3]; 0.125 A, 0 B6 weight %): 43%; microbial growth percentage ([3]; 0.25 A, 0 B3 weight %): 27%; microbial growth percentage ([3]; 0.25 A, 0 B4 weight %): 38%; microbial growth percentage ([3]; 0.25 A, 0 B6 weight %): 34%; microbial growth percentage ([3]; 0.5 A, 0 B3 weight %): 14%; microbial growth percentage ([3]; 0.5 A, 0 B4 weight %): 12%; microbial growth percentage ([3]; 0.5 A, 0 B6 weight %): 0%; % MIC of A alone ([3]; Example 3): 0.5%; % MIC of A alone ([3]; Example 4): 0.5%; % MIC of A alone ([3]; Example 6): 0.5%

Source: US20220174947A1, “ANTIMICROBIAL MIXTURE CONTAINING 4-(3-ETHOXY-4-HYDROXYPHENYL)BUTAN-2-ONE AND AN ALCOHOL COMPOUND, AND COSMETIC COMPOSITION CONTAINING SAME” (L'OREAL, priority 2018, published 2022)
